Experimental data as given in the supplement of paper PMC6045584.
± gives the standard deviation of the averaged measurements.

Key:
CAMPTOTHECIN [1] = compound: T1, CC[C@@]1(O)C(=O)OCc2c1cc1n(c2=O)Cc2cc3ccccc3nc2-1 [CAMPTOTHECIN]; assay: surviving fraction relative to DMSO-only wells; higher = less growth inhibition; settings: exposure time: 5 days
Procedure, shortened: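 Viability was scored with CellTiter-Glo luminescence and normalised to the median of DMSO-only wells as surviving fraction. Beforehand, log-phase tumour cell lines were seeded at 250–500 cells per well in 384-well plates, allowed 24 hours, and exposed continuously for five days to inhibitors at 0.5, 1, 5, 10, 50, 100, 500 and 1000 nM. Only lines whose three screens gave replicate Pearson r >0.7 and median Z' >0.3 were kept.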

GEFITINIB = compound: COc1cc2ncnc(Nc3ccc(F)c(Cl)c3)c2cc1OCCCN1CCOCC1 [GEFITINIB]; assay: area under dose-response curve of surviving fraction (unscaled, Aref=0) (surviving fraction x log10(nM)); higher = more resistant; settings: exposure time: 5 days; dose range 0.5-1000 nM
Procedure, shortened: (§1)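 Each tumour cell line was screened three times in 384-well plates, receiving eight inhibitor concentrations from 0.5 to 1000 nM for five days. CellTiter-Glo luminescence gave viability, normalised to DMSO-only wells. Using the drc R package, surviving fractions were fitted with 3-parameter logistic dose-response curves, and the unscaled activity area over log10 dose (Aref = 0) was taken as the area under the curve.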

CELECOXIB = compound: Cc1ccc(-c2cc(C(F)(F)F)nn2-c2ccc(S(N)(=O)=O)cc2)cc1 [CELECOXIB]; assay: as above; settings: exposure time: 5 days; dose range 0.5-1000 nM
Procedure, shortened: as §1

[2] = compound: CC(=O)c1c(C)c2cnc(Nc3ccc(N4CCNCC4)cn3)nc2n(C2CCCC2)c1=O; assay: as above; settings: exposure time: 5 days; dose range 0.5-1000 nM
Procedure, shortened: as §1

CAMPTOTHECIN [3] = compound: T1, CAMPTOTHECIN; assay: as above; settings: exposure time: 5 days; dose range 0.5-1000 nM
Procedure, shortened: as §1

OSI-906 = compound: C[C@]1(O)C[C@@H](c2nc(-c3ccc4ccc(-c5ccccc5)nc4c3)c3c(N)nccn32)C1 [OSI-906]; assay: as above; settings: exposure time: 5 days; dose range 0.5-1000 nM
Procedure, shortened: as §1

PACLITAXEL = compound: CC(=O)O[C@H]1C(=O)[C@@]2(C)[C@H]([C@H](OC(=O)c3ccccc3)[C@]3(O)C[C@H](OC(=O)[C@H](O)[C@@H](NC(=O)c4ccccc4)c4ccccc4)C(C)=C1C3(C)C)[C@]1(OC(C)=O)CO[C@@H]1C[C@@H]2O [PACLITAXEL]; assay: as above; settings: exposure time: 5 days; dose range 0.5-1000 nM
Procedure, shortened: as §1

YM155 = compound: COCC[n+]1c2c(n(Cc3cnccn3)c1C)C(=O)c1ccccc1C2=O [YM155]; assay: as above; settings: exposure time: 5 days; dose range 0.5-1000 nM
Procedure, shortened: as §1

CARBOPLATIN = compound: O=C(O)C1(C(=O)O)CCC1.[NH2-].[NH2-].[Pt+2] [CARBOPLATIN]; assay: as above; settings: exposure time: 5 days; dose range 0.5-1000 nM
Procedure, shortened: as §1

[4] = compound: CC(=O)NCC(=O)N1[C@@H]2CC[C@H]1c1ccc(Nc3ncc(C(F)(F)F)c(NC4CCC4)n3)cc12; assay: as above; settings: exposure time: 5 days; dose range 0.5-1000 nM
Procedure, shortened: as §1

Test System | surviving fraction (CAMPTOTHECIN [1]; 0.5 nM) | surviving fraction (CAMPTOTHECIN [1]; 1 nM) | surviving fraction (CAMPTOTHECIN [1]; 5 nM) | surviving fraction (CAMPTOTHECIN [1]; 10 nM) | surviving fraction (CAMPTOTHECIN [1]; 50 nM) | surviving fraction (CAMPTOTHECIN [1]; 100 nM) | surviving fraction (CAMPTOTHECIN [1]; 500 nM) | surviving fraction (CAMPTOTHECIN [1]; 1000 nM) | area under dose-response curve (GEFITINIB) | area under dose-response curve (CELECOXIB) | area under dose-response curve [2] | area under dose-response curve (CAMPTOTHECIN [3]) | area under dose-response curve (OSI-906) | area under dose-response curve (PACLITAXEL) | area under dose-response curve (YM155) | area under dose-response curve (CARBOPLATIN) | area under dose-response curve [4]
JIMT1 BREAST | 0.894 ± 0.018 | 0.893 ± 0.058 | 0.8377 ± 0.0059 | 0.655 ± 0.048 | 0.433 ± 0.024 | 0.394 ± 0.034 | 0.066 ± 0.0031 | 0.0517 ± 0.0014 | 3.29 | 3.51 | 3.35 | 1.8 | 3.15 | 0.48 | 1.39 | 3.31 | 2.96
KPD BONE | 0.886 ± 0.02 | 0.856 ± 0.041 | 0.509 ± 0.0098 | 0.327 ± 0.004 | 0.29 ± 0.015 | 0.15 ± 0.016 | 0.041 ± 0.0027 | 0.0363 ± 0.0045 | 3.15 | 3.48 | 3.15 | 1.2 | 2.38 | 1.47 | 1.1 | 3.52 | 2.67
MCF7 BREAST | 0.731 ± 0.032 | 0.824 ± 0.025 | 0.696 ± 0.079 | 0.556 ± 0.01 | 0.39 ± 0.0082 | 0.354 ± 0.011 | 0.0642 ± 0.0025 | 0.0648 ± 0.0052 | 3.14 | 3.11 | 3.03 | 1.55 | 2.69 | 1.43 | 1.18 | 3.08 | 2.53
MDAMB134 BREAST | 0.662 ± 0.057 | 0.625 ± 0.048 | 0.66 ± 0.016 | 0.587 ± 0.031 | 0.602 ± 0.0085 | 0.594 ± 0.0057 | 0.587 ± 0.13 | 0.518 ± 0.044 | 3.62 | 3.59 | 3.84 | 2.11 | 2.32 | 2.33 | 2.43 | 3.15 | 3.57
MDAMB361 BREAST | 0.664 ± 0.069 | 0.737 ± 0.045 | 0.747 ± 0.096 | 0.723 ± 0.066 | 0.774 ± 0.071 | 0.702 ± 0.032 | 0.397 ± 0.038 | 0.38 ± 0.041 | 2.9 | 2.93 | 2.85 | 2.14 | 2.51 | 2.36 | 1.61 | 2.64 | 3.12
MDAMB468 BREAST | 0.872 ± 0.061 | 0.832 ± 0.095 | 0.782 ± 0.094 | 0.546 ± 0.056 | 0.158 ± 0.011 | 0.0843 ± 0.0055 | 0.0373 ± 0.0067 | 0.0367 ± 0.0025 | 3.08 | 3.83 | 3.48 | 1.41 | 3.08 | 0.701 | 0.87 | 3.37 | 2.44
NCIH441 LUNG | 0.951 ± 0.045 | 0.896 ± 0.03 | 0.743 ± 0.019 | 0.474 ± 0.031 | 0.201 ± 0.02 | 0.114 ± 0.016 | 0.0587 ± 0.0095 | 0.044 ± 0.003 | 3.59 | 3.66 | 3.59 | 1.41 | 3.21 | 1.56 | 1.12 | 3.51 | 2.94
NY BONE | 0.894 ± 0.052 | 0.905 ± 0.021 | 0.648 ± 0.026 | 0.184 ± 0.012 | 0.067 ± 0.0061 | 0.0407 ± 0.0015 | 0.02 ± 0.0017 | 0.0217 ± 0.0021 | 3.43 | 3.48 | 3.46 | 1.16 | 3.15 | 0.337 | 2.96 | 3.46 | 2.51
OS25HAL BONE | 0.877 ± 0.013 | 0.862 ± 0.037 | 0.475 ± 0.03 | 0.145 ± 0.022 | 0.055 ± 0.001 | 0.0397 ± 0.0093 | 0.0247 ± 0.0032 | 0.037 ± 0.0069 | 3.55 | 3.54 | 3.42 | 0.945 | 2.57 | 1.01 | 0.935 | 3.56 | 2.55
OSHN BONE | 0.83 ± 0.013 | 0.842 ± 0.007 | 0.47 ± 0.079 | 0.108 ± 0.018 | 0.0807 ± 0.0076 | 0.0593 ± 0.012 | 0.0367 ± 0.0083 | 0.034 ± 0.0044 | 3.72 | 3.7 | 3.62 | 0.918 | 2.89 | 0.555 | 0.946 | 3.65 | 2.43
PCI30 HEADNECK | 0.908 ± 0.043 | 0.912 ± 0.056 | 0.857 ± 0.024 | 0.497 ± 0.026 | 0.437 ± 0.034 | 0.487 ± 0.027 | 0.356 ± 0.015 | 0.264 ± 0.015 | 2.84 | 3.38 | 3.11 | 1.92 | 3.26 | 0.529 | 1.32 | 3.57 | 2.81
SCC36 HEADNECK | 0.804 ± 0.15 | 0.703 ± 0.13 | 0.704 ± 0.14 | 0.495 ± 0.018 | 0.332 ± 0.012 | 0.156 ± 0.0031 | 0.0463 ± 0.012 | 0.0413 ± 0.004 | 2.61 | 3.53 | 3.5 | 1.36 | 2.48 | 0.905 | 1.77 | 3.45 | 2.74
SKBR3 BREAST | 0.83 ± 0.073 | 0.806 ± 0.029 | 0.757 ± 0.1 | 0.529 ± 0.029 | 0.222 ± 0.01 | 0.166 ± 0.013 | 0.0683 ± 0.0042 | 0.0517 ± 0.0049 | 2.78 | 3.44 | 3.09 | 1.42 | 2.71 | 0.673 | 1.36 | 3.44 | –
SUM149 BREAST | – | – | – | 0.126 ± 0.0081 | 0.102 ± 0.0081 | 0.0913 ± 0.0049 | 0.048 ± 0.0052 | 0.0367 ± 0.0055 | 2.81 | 3.68 | 3.23 | – | 2.61 | 0.407 | 1.31 | 3.13 | 2.36
SUM149.B1*.S BREAST | 0.467 ± 0.023 | 0.853 ± 0.024 | 0.692 ± 0.075 | 0.301 ± 0.021 | 0.0407 ± 0.0027 | 0.0422 ± 0.0024 | 0.0262 ± 0.0016 | 0.0295 | 3.6 | 3.73 | 3.76 | – | 2.99 | 1.21 | 1.66 | 3.85 | 3.06
YAMATO SYNOVIAL | 0.118 ± 0.0092 | 0.562 ± 0.092 | 0.466 ± 0.035 | 0.479 ± 0.033 | 0.0957 ± 0.0085 | 0.247 ± 0.026 | 0.16 ± 0.0095 | 0.284 ± 0.028 | 4.25 | 4.62 | 3.92 | 0.991 | – | 1.69 | 1.2 | 4.26 | 2.87
